Measurements taken from publication PMC11876601 (Molecular Systems Biology, 2025).
Values joined by “and” are separate entries in the source; they are usually repeats but may differ in a detail not shown here. Equal values may be shown once. Read-outs that look alike come from different tables or passages of the source.

Test system: AsPC-1 cells
Experiment: Cell proliferation assay, chemodrug + ATR inhibitor (Incucyte confluence, 72 h);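 further: underlying read-out for every value is AsPC-1 confluence after 72 h incubation at 37 °C and 5% CO2, divided by that well's starting confluence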
Details: for EC50: Homo sapiens; for Ratio: Response / Response vehicle (mean)
[1] = AsPC-1, Experiment GEM (no ATRi), single replicates R1-R3, listed as 5-FU
[2] = AsPC-1, Experiment GEM+ATRi_dose1, single replicates R1-R3, listed as 5-FU
[3] = AsPC-1, Experiment GEM+ATRi_dose2, single replicates R1-R3, listed as 5-FU
[4] = AsPC-1, Experiment GEM+ATRi_dose3, single replicates R1-R3, listed as 5-FU
[5] = Drug 0 nM + ATRi 3 nM (ATRi alone, GEM+ATRi_dose1 series), replicates R1-R3, listed as 5-FU
[6] = Drug 0 nM + ATRi 10 nM (ATRi alone, GEM+ATRi_dose2 series), replicates R1-R3, listed as 5-FU
[7] = Drug 0 nM + ATRi 30 nM (ATRi alone, GEM+ATRi_dose3 series), replicates R1-R3, listed as 5-FU
[8] = Drug 1 nM + ATRi 3 nM (GEM+ATRi_dose1), replicates R1-R3, listed as 5-FU
[9] = Drug 1 nM + ATRi 10 nM (GEM+ATRi_dose2), replicates R1-R3, listed as 5-FU
[10] = Drug 1 nM + ATRi 30 nM (GEM+ATRi_dose3), replicates R1-R3, listed as 5-FU
[11] = Drug 3 nM + ATRi 3 nM (GEM+ATRi_dose1), replicates R1-R3, listed as 5-FU
[12] = Drug 3 nM + ATRi 30 nM (GEM+ATRi_dose3), replicates R1-R3, listed as 5-FU
[13] = Drug 3 nM alone, ATRi 0 nM (experiment 'GEM'), replicates R1-R3, listed as 5-FU
[14] = Drug 10 nM + ATRi 3 nM (GEM+ATRi_dose1), replicates R1-R3, listed as 5-FU
[15] = Drug 10 nM + ATRi 10 nM (GEM+ATRi_dose2), replicates R1-R3, listed as 5-FU
[16] = Drug 10 nM + ATRi 30 nM (GEM+ATRi_dose3), replicates R1-R3, listed as 5-FU
[17] = Drug 10 nM alone, ATRi 0 nM (experiment 'GEM'), replicates R1-R3, listed as 5-FU
[18] = Drug 30 nM + ATRi 3 nM (GEM+ATRi_dose1), replicates R1-R3, listed as 5-FU
[19] = Drug 30 nM + ATRi 10 nM (GEM+ATRi_dose2), replicates R1-R3, listed as 5-FU
[20] = Drug 30 nM + ATRi 30 nM (GEM+ATRi_dose3), replicates R1-R3, listed as 5-FU
[21] = Drug 100 nM + ATRi 3 nM (GEM+ATRi_dose1), replicates R1-R3
[22] = Drug 100 nM + ATRi 10 nM (GEM+ATRi_dose2), replicates R1-R3, listed as 5-FU
[23] = Drug 100 nM + ATRi 30 nM (GEM+ATRi_dose3), replicates R1-R3, listed as 5-FU
[24] = Drug 100 nM alone, ATRi 0 nM (experiment 'GEM'), replicates R1-R3, listed as 5-FU
[25] = Drug 300 nM + ATRi 3 nM (GEM+ATRi_dose1), replicates R1-R3
[26] = Drug 300 nM + ATRi 10 nM (GEM+ATRi_dose2), replicates R1-R3, listed as 5-FU
[27] = Drug 300 nM + ATRi 30 nM (GEM+ATRi_dose3), replicates R1-R3, listed as 5-FU
[28] = Drug 300 nM alone, ATRi 0 nM (experiment 'GEM'), replicates R1-R3, listed as 5-FU
[29] = Drug 1000 nM + ATRi 3 nM (GEM+ATRi_dose1), replicates R1-R3
[30] = Drug 1000 nM + ATRi 30 nM (GEM+ATRi_dose3), replicates R1-R3, listed as 5-FU
[31] = Drug 1000 nM alone, ATRi 0 nM (experiment 'GEM'), replicates R1-R3, listed as 5-FU
[32] = Drug 3000 nM + ATRi 3 nM (GEM+ATRi_dose1), replicates R1-R3
[33] = Drug 3000 nM + ATRi 10 nM (GEM+ATRi_dose2), replicates R1-R3, listed as 5-FU
[34] = Drug 3000 nM + ATRi 30 nM (GEM+ATRi_dose3), replicates R1-R3, listed as 5-FU
[35] = Drug 3000 nM alone, ATRi 0 nM (experiment 'GEM'), replicates R1-R3, listed as 5-FU
[36] = drug 100 nM + ATRi 3 nM, listed as 5-FU
[37] = drug 300 nM + ATRi 3 nM, listed as 5-FU
[38] = drug 1000 nM + ATRi 3 nM, listed as 5-FU
[39] = drug 3000 nM + ATRi 3 nM, listed as 5-FU

Description: Cells were seeded at 5000 cells/well into 96-well flat bottom plates (Eppendorf) and allowed to attach overnight. […] Cells were incubated for 72 h at 37 °C and 5% CO2. Cell confluence readouts at 72 h were either normalized to their initial confluence using the Incucyte software (AsPC-1) or used without prior normalization (all others). […] Each experiment was performed in triplicates, the data was plotted as mean ± standard deviation (s.d.).

EC50 (ASPC1, 72 h, AsPC-1, Experiment GEM (no ATRi), single replicates R1-R3): 1020 nM
EC50 (ASPC1, 72 h, read-out: EC50 mean [nM], AsPC-1, Experiment GEM (no ATRi), mean of R1-R3, repeated in each replicate line): 1190 nM
EC50 (ASPC1, 72 h, read-out: pEC50, AsPC-1 (converted), Experiment GEM (no ATRi), single replicates R1-R3): 1020 nM
EC50 (ASPC1, read-out: EC50 mean [nM], AsPC-1, Experiment GEM (no ATRi), mean of R1-R3, repeated in each replicate line): 1190 nM
EC50 (ASPC1, read-out: EC50 mean [nM], AsPC-1, Experiment GEM+ATRi_dose1, mean of R1-R3, repeated in each replicate line): 619 nM
EC50 (ASPC1, read-out: EC50 mean [nM], AsPC-1, Experiment GEM+ATRi_dose2, mean of R1-R3, repeated in each replicate line): 326 nM
EC50 (ASPC1, read-out: EC50 mean [nM], AsPC-1, Experiment GEM+ATRi_dose3, mean of R1-R3, repeated in each replicate line): 266 nM
Structure (SMILES): O=c1[nH]cc(F)c(=O)[nH]1 [5-fluorouracil]
Curve bottom [1]: 1.02 and 1.01 and 1.04
Curve slope [1]: 1.53 and 1.20 and 1.02
Curve top [1]: 0.52 and 0.45 and 0.53
Curve bottom [2]: 1.03 and 1.04
Curve slope [2]: 1.17 and 1.72 and 2.53
Curve top [2]: 0.34 and 0.38 and 0.50
Curve bottom (AsPC-1, Experiment GEM+ATRi_dose2, single replicates R1-R3): 1.02
Curve slope [3]: 2.12 and 2.47 and 2.30
Curve top [3]: 0.44 and 0.42 and 0.41
Curve bottom [4]: 0.92 and 0.93 and 0.96
Curve slope [4]: 7.78 and 7.99 and 4.74
Curve top [4]: 0.42 and 0.41
Response [5]: 93.23 and 93.25
Response [6]: 93.23 and 93.25
Response [7]: 86.00 and 86.93
Response [8]: 93.84 and 90.46
Response [9]: 92.14 and 89.28
Response [10]: 85.34 and 86.33
Response (Drug 1 nM alone, ATRi 0 nM (experiment 'GEM'), replicates R1-R3, listed as 5-FU): 94.45
Response [11]: 93.43 and 94.40
Response (Drug 3 nM + ATRi 10 nM (GEM+ATRi_dose2), replicates R1-R3, listed as 5-FU): 92.25 and 90.36
Response [12]: 84.22 and 84.05
Response [13]: 90.32
Response [14]: 92.50 and 91.39
Response [15]: 91.53 and 89.96
Response [16]: 83.67 and 82.94
Response [17]: 89.98 and 90.52
Response [18]: 93.40 and 92.15
Response [19]: 91.74 and 91.80
Response [20]: 86.01 and 86.29
Response (Drug 30 nM alone, ATRi 0 nM (experiment 'GEM'), replicates R1-R3, listed as 5-FU): 91.55 and 89.05
Response [21]: 92.03
Response [22]: 90.88 and 90.27
Response [23]: 85.31 and 85.49
Response [24]: 92.05 and 91.30
Response [25]: 79.74
Response [26]: 62.48 and 67.47
Response [27]: 51.19 and 52.50
Response [28]: 82.78 and 83.05
Response [29]: 50.06
Response (Drug 1000 nM + ATRi 10 nM (GEM+ATRi_dose2), replicates R1-R3, listed as 5-FU): 44.01 and 42.89
Response [30]: 38.74 and 41.39
Response [31]: 71.08 and 72.31
Response [32]: 44.54
Response [33]: 35.64 and 36.17
Response [34]: 35.72 and 32.91
Response [35]: 54.65 and 60.00
Ratio [5]: 1.02 and 1.04
Ratio [6]: 1.02 and 1.04
Ratio [7]: 0.94 and 0.97
Ratio [8]: 1.03 and 1.01
Ratio [9]: 1.01 and 1.00
Ratio [10]: 0.94 and 0.97
Ratio (Drug 1 nM alone, ATRi 0 nM (experiment 'GEM'), replicates R1-R3): 1.04
Ratio [11]: 1.03 and 1.06
Ratio (Drug 3 nM + ATRi 10 nM (GEM+ATRi_dose2), replicates R1-R3): 1.01
Ratio [12]: 0.92 and 0.94
Ratio [13]: 0.99 and 1.05
Ratio [14]: 1.01 and 1.02
Ratio [15]: 1.00 and 1.01
Ratio [16]: 0.92 and 0.93
Ratio [17]: 0.99 and 1.01
Ratio [18]: 1.02 and 1.03
Ratio [19]: 1.01 and 1.03
Ratio [20]: 0.94 and 0.97
Ratio (Drug 30 nM alone, ATRi 0 nM (experiment 'GEM'), replicates R1-R3): 1.00
Ratio [21]: 1.03
Ratio [22]: 1.00 and 1.01
Ratio [23]: 0.94 and 0.96
Ratio [24]: 1.01 and 1.02
Ratio [25]: 0.89
Ratio [26]: 0.69 and 0.76
Ratio [27]: 0.56 and 0.59
Ratio [28]: 0.91 and 0.93
Ratio [29]: 0.56
Ratio (Drug 1000 nM + ATRi 10 nM (GEM+ATRi_dose2), replicates R1-R3): 0.48
Ratio [30]: 0.43 and 0.46
Ratio [31]: 0.78 and 0.81
Ratio [32]: 0.50
Ratio [33]: 0.39 and 0.41
Ratio [34]: 0.39 and 0.37
Ratio [35]: 0.60 and 0.67
Ratio (drug 1 nM + ATRi 3 nM): 1.05
Ratio (drug 1 nM + ATRi 10 nM): 1.03
Ratio (drug 1 nM + ATRi 30 nM): 0.93
Ratio (drug 1 nM alone (ATRi 0 nM)): 1.02
Ratio (drug 3 nM + ATRi 3 nM): 1.01
Ratio (drug 3 nM + ATRi 10 nM): 0.98
Ratio (drug 3 nM + ATRi 30 nM): 0.92
Ratio (drug 3 nM alone (ATRi 0 nM)): 1.00
Ratio (drug 10 nM + ATRi 3 nM): 1.01
Ratio (drug 10 nM + ATRi 10 nM): 1.01
Ratio (drug 10 nM + ATRi 30 nM): 0.91
Ratio (drug 10 nM alone (ATRi 0 nM)): 1.02
Ratio (drug 30 nM + ATRi 3 nM): 1.02
Ratio (drug 30 nM + ATRi 10 nM): 1.00
Ratio (drug 30 nM + ATRi 30 nM): 0.94
Ratio (drug 30 nM alone (ATRi 0 nM)): 1.02
Ratio [36]: 1.02 and 1.04
Ratio (drug 100 nM + ATRi 10 nM): 1.01
Ratio (drug 100 nM + ATRi 30 nM): 0.92
Ratio (drug 100 nM alone (ATRi 0 nM)): 1.03
Ratio [37]: 0.84 and 0.85
Ratio (drug 300 nM + ATRi 10 nM): 0.76
Ratio (drug 300 nM + ATRi 30 nM): 0.58
Ratio (drug 300 nM alone (ATRi 0 nM)): 0.95
Ratio [38]: 0.66 and 0.57
Ratio (drug 1000 nM + ATRi 10 nM): 0.52
Ratio (drug 1000 nM + ATRi 30 nM): 0.43
Ratio (drug 1000 nM alone (ATRi 0 nM)): 0.78
Ratio [39]: 0.46 and 0.41
Ratio (drug 3000 nM + ATRi 10 nM): 0.43
Ratio (drug 3000 nM + ATRi 30 nM): 0.42
Ratio (drug 3000 nM alone (ATRi 0 nM)): 0.60
sensitization of AsPC-1 cells to the chemodrug by Elimusertib (chemodrug + three sub-EC50 doses of Elimusertib): sensitized
Response (drug 1 nM + ATRi 3 nM): 97.06
Response (drug 1 nM + ATRi 10 nM): 94.90
Response (drug 1 nM + ATRi 30 nM): 85.74
Response (drug 1 nM alone (ATRi 0 nM)): 94.29
Response (drug 3 nM + ATRi 3 nM): 93.28
Response (drug 3 nM + ATRi 10 nM): 90.39
Response (drug 3 nM + ATRi 30 nM): 84.88
Response (drug 3 nM alone (ATRi 0 nM)): 92.53
Response (drug 10 nM + ATRi 3 nM): 93.05
Response (drug 10 nM + ATRi 10 nM): 92.81
Response (drug 10 nM + ATRi 30 nM): 83.72
Response (drug 10 nM alone (ATRi 0 nM)): 93.59
Response (drug 30 nM + ATRi 3 nM): 93.52
Response (drug 30 nM + ATRi 10 nM): 91.78
Response (drug 30 nM + ATRi 30 nM): 86.53
Response (drug 30 nM alone (ATRi 0 nM)): 94.07
Response [36]: 94.22 and 94.47
Response (drug 100 nM + ATRi 10 nM): 93.45
Response (drug 100 nM + ATRi 30 nM): 85.12
Response (drug 100 nM alone (ATRi 0 nM)): 94.67
Response [37]: 77.35 and 77.27
Response (drug 300 nM + ATRi 10 nM): 69.87
Response (drug 300 nM + ATRi 30 nM): 53.83
Response (drug 300 nM alone (ATRi 0 nM)): 87.11
Response [38]: 61.14 and 51.57
Response (drug 1000 nM + ATRi 10 nM): 47.87
Response (drug 1000 nM + ATRi 30 nM): 39.31
Response (drug 1000 nM alone (ATRi 0 nM)): 71.77
Response [39]: 42.27 and 37.14
Response (drug 3000 nM + ATRi 10 nM): 39.36
Response (drug 3000 nM + ATRi 30 nM): 38.38
Response (drug 3000 nM alone (ATRi 0 nM)): 55.50
